The values that follow come from paper PMC8279416, “Structural Fine-Tuning of Desmuramylpeptide NOD2 Agonists Defines Their In Vivo Adjuvant Activity” (Journal of Medicinal Chemistry, 2021).

The subject of one assay is PBMCs. Briefly: RNA sequencing of PBMCs, differential expression analysis. Format: cell-based, human. The conditions noted are these: 2 μM, 18 h; for Number of genes with significantly modulated expression: FDR <0.05, fold change >1.5 or <0.667 vs 0.1% DMSO; for Number of differentially expressed genes: down-regulated / Number of differentially expressed genes: up-regulated: vs 0.1% DMSO. How it is done:
Based on the potent in vitro NOD2 activation by 68 and the PBMC cytotoxicity activation by 75, we explored the effects of 68 and 75 in terms of induction at the transcriptional level. Next-generation sequencing of RNA isolated from PBMCs was carried out following their stimulation for 18 h with 68 or 75 (2 μM). After applying a low expression filter, the remaining 19046 genes from the desmuramylpeptide-treated samples were compared to the vehicle-treated controls (0.1% DMSO).
Peripheral blood mononuclear cells from three independent donors were seeded (2 × 10^6 cells/mL) in 24-well plates in 1 mL of growth medium and treated with the compounds (2 μM) or vehicle (0.1% DMSO) for 18 h at 37 °C in 5% CO2. The cells were washed with phosphate-buffered saline, resuspended in RNAlater RNA stabilization solution (Sigma-Aldrich, St. Louis, MO, U.S.A.), and stored at −80 °C. RNA extraction, library construction, and sequencing were conducted by Genewiz (Leipzig, Germany).
Briefly, total RNA was extracted using the RNeasy mini kit (Qiagen, Hilden, Germany) according to the manufacturer protocol. RNA samples were quantified using Qubit 4.0 Fluorometer (Life Technologies, Carlsbad, CA, U.S.A.), and RNA integrity was checked with RNA Kit on a 5600 Fragment Analyzer (Agilent Technologies, Palo Alto, CA, U.S.A.). All RNA samples were of high quality with an RNA quality number of ≥9.4. RNA sequencing libraries were prepared using NEBNext Ultra II RNA library prep kit for Illumina according to the manufacturer instructions (New England Biolabs, Ipswich, MA, U.S.A.). Libraries were loaded on the Illumina NovaSeq 6000 instrument, and clustering was performed directly on the NovaSeq before sequencing according to the manufacturer instructions. The samples were sequenced using a 2 × 150 paired end configuration. Image analysis and base calling were conducted by the NovaSeq Control Software. Raw sequence data (.bcl files) generated from the Illumina NovaSeq were converted into fastq files and demultiplexed using Illumina’s bcl2fastq 2.19 software. One mismatch was allowed for index sequence identification. After investigating the quality of the raw data, sequence reads were trimmed to remove possible adapter sequences and nucleotides with poor quality using Trimmomatic v.0.36. The trimmed reads were mapped to the Homo sapiens reference genome as available on ENSEMBL, using STAR aligner v.2.5.2b, thus generating BAM files. Unique gene hit counts were calculated using feature counts from the Subread package v.1.5.2. Only unique reads that fell within exon regions were counted. After extraction of gene hit counts, the gene hit counts table was used for downstream differential expression analysis.
Differential expression analysis was performed with iDEP.91.[128] First, a low expression filter was applied (0.5 counts per million in at least 1 library). The remaining gene counts were normalized by counts per million in the EdgeR package, with a pseudocount of 4. Differential gene expression analysis was performed with the DESeq2 method, using a false discovery rate <0.05 and a gene expression fold change >1.5 or <0.667 as the cutoff values. The list of differentially expressed genes was then used as input for gene annotation and pathway enrichment analysis with Metascape.[94]

The test system of assay [1] is CD8+ T cells (OT I) cocultured with BMDCs. The experiment in a line: BMDC antigen cross-presentation assay with ovalbumin-specific CD8+ T cells. Format: cell-based, mouse. The following applies: ovalbumin 50 μg/mL, 72 h coculture. The procedure: To evaluate the adjuvant potential of the two most-promising desmuramylpeptides, 68 and 75, in terms of their effects on DC-mediated activation of CD4^+ and CD8^+ T cells, we used an in vitro antigen-presentation assay with C57BL/6 mouse bone-marrow-derived DCs (BMDCs). Following stimulation with 68 and 75 (1 or 10 μM) in the presence of ovalbumin soluble protein (50 μg/mL), BMDCs were cocultured with carboxyfluorescein succinimidyl ester (CFSE)-labeled naive ovalbumin-specific CD4^+ or CD8^+ T cells, which were isolated from splenocytes of OT II and OT I transgenic mice, respectively. After 3 days of coculture, CD25 (α subunit of IL-2 receptor)[108] expression was determined, along with the CFSE dilution, as markers of T-cell activation and proliferation, respectively. Furthermore, we also examined how this desmuramylpeptide-induced priming of T cells affected the secreted cytokine profiles in BMDC/T-cell cocultures.
CD4^+ and CD8^+ T cells were purified from splenocytes of OT II and OT I transgenic mice using CD4^+ and CD8^+ T cell isolation kits (Miltenyi Biotec, Germany), according to manufacturer instructions. […] Live Thy1.2^+/CD4^+ and Thy1.2^+/CD8^+ were evaluated for CFSE dilution and CD25 expression. […] Statistical significance was determined by one-way ANOVA followed by Dunnett’s multiple comparisons test.

On to `CCCCCCCCCCCCCCCCCC(=O)Oc1ccc(/C=C/C(=O)NCC(=O)N[C@H](C(=O)N[C@H](CCC(=O)OCC)C(=O)OCC)C(C)C)cc1OC` [Compound 75, Diethyl ((E)-3-(3-Methoxy-4-(stearoyloxy)phenyl)acryloyl)glycyl-L-valyl-D-glutamate], for which, in the assay on PBMCs, the “Number of genes with significantly modulated expression” value was 270 genes, the “Number of differentially expressed genes: down-regulated” value stood at 143 genes and the “Number of differentially expressed genes: up-regulated” value worked out at 127 genes.

Turning to `COc1cc(/C=C/C(=O)NCC(=O)N[C@H](C(=O)N[C@H](CCC(=O)OC2CCCC2)C(=O)OC2CCCC2)C(C)C)ccc1O` [Compound 68, Dicyclopentyl ((E)-3-(4-Hydroxy-3-methoxyphenyl)acryloyl)glycyl-L-valyl-D-glutamate], in the assay with PBMCs, the “Modulation of interferon-stimulated genes (ISGs)” value was “up-regulation of several interferon-stimulated genes”, the “Number of genes with significantly modulated expression” value is given as 445 genes, the “Number of differentially expressed genes: down-regulated” value was 215 genes and the “Number of differentially expressed genes: up-regulated” value came to 230 genes. The “BMDC processing and cross-presentation of ovalbumin to CD8+ T cells” value in assay [1] is reported as “significantly increased”.
